Earlier results as cited in patent US11634860B2, “Articles and methods for dispensing metal ions into laundry systems” (Applied Silver, Inc., priority 2016, dated 2023).

Details: silver salt formed with the binder's counterion

Row | Solubility Limit | Structure (SMILES)
1 | 1.60E−04 g/100 mL | [Cl][Ag] [AgCl]
2 | 100 g/100 mL | [Ag+].[F-] [AgF]
3 | 6.21E−16 g/100 mL | [Ag+].[Ag+].[S-2] [Ag2S]
